Test [1] has as its target T1, PRMT5 (Homo sapiens, UniProt O14744).
T1 construct: purchased Viva (custom protein)
Put plainly: PRMT5 IC50 assay in the presence of SAM as cofactor. Type of test: biochemical. An outline of the steps: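 Values reflect IC50 (μM) on human PRMT5 under three cofactor states. Selectivity is derived as the quotient of SAM-state Ki over MTA-state Ki, with each Ki obtained from its IC50.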

The target in test [2] is T1, PRMT5. As to the kind of experiment: PRMT5 IC50 assay with no cofactor. Type of test: biochemical. An outline of the steps:
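Human PRMT5 inhibition, IC50 in μM; cofactor varied (SAM / MTA / none).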

Test [3] has as its target T1, PRMT5. As to the kind of experiment: PRMT5 IC50 assay in the presence of MTA as cofactor. Type of test: biochemical. The settings on record: for IC50: PRMT5, MTA as cofactor. An outline of the steps:
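Three cofactor conditions tested for PRMT5 inhibition: none, MTA and SAM, each giving an IC50. For conversion to Ki, the MTA-condition IC50 is divided by 13.5 and the SAM-condition IC50 by 1.5, and the two Ki values are expressed as a SAM/MTA ratio.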

The subject of another test is HAP1 MTAP-intact. As to the kind of experiment: SDMA in-cell western assay, HAP1 MTAP-intact cell line. The settings on record: Homo sapiens. Type of test: cell-based. An outline of the steps: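 HAP1 isogenic pair: endogenous MTAP vs MTAP-null. Readout SDMA by in-cell western; IC50 per line. Ratio ≥3 fold = MTAP-selective.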
The next test deals with HAP1 MTAP-deleted. As to the kind of experiment: SDMA in-cell western assay, HAP1 MTAP-deleted cell line. Type of test: cell-based. The settings on record: for IC50: Homo sapiens, HAP1 MTAP-deleted cell line; for MTAP Intact/Deleted Ratio: IC50 ratio HAP1 MTAP-intact / HAP1 MTAP-deleted. An outline of the steps:
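IC50 from SDMA in-cell western; HAP1 line lacking MTAP (null), paired isogenically with MTAP-intact HAP1 expressing endogenous MTAP.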

Setting [4] is: ratio between Ki in the presence of SAM and Ki in the presence of MTA.
[5] abbreviates: ratio between the Ki in the presence of SAM and the Ki in the presence of MTA.

T1 sequence (O14744 whole entry): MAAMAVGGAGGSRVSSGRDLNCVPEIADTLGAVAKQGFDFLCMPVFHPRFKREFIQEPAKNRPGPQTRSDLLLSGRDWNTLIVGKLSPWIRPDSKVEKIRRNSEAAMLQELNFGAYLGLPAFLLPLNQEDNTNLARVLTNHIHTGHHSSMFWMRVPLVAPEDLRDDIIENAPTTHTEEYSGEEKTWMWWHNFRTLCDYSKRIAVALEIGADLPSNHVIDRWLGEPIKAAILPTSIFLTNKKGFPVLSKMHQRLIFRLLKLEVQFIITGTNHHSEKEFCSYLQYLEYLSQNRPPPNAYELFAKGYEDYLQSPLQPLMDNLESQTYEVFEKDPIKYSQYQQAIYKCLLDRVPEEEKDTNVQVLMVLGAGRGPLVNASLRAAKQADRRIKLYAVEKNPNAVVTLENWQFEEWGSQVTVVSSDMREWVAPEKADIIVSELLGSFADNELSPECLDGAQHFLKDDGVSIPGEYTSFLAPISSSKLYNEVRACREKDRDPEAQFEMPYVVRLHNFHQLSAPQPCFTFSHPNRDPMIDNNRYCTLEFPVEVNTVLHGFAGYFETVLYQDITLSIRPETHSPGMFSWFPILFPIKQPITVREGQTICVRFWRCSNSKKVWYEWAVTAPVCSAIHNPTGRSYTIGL
T1 sequence (Q9BQA1 whole entry partner): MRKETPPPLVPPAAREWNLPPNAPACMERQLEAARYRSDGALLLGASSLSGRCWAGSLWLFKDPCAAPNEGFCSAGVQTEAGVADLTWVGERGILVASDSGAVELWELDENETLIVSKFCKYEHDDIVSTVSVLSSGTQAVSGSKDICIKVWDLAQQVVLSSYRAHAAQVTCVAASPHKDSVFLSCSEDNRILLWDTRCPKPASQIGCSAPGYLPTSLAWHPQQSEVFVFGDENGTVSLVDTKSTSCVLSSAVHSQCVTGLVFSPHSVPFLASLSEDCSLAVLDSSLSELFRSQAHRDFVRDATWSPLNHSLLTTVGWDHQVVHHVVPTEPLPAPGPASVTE

With `CC(=O)N1CCC(Nc2cc(C(=O)NC[C@H](O)CN3CCc4cc(OCc5cnn[nH]5)ccc4C3)ncn2)CC1` [Compound 257, (S)—N-(3-(6-((1H-1,2,3-triazol-5-yl)methoxy)-3,4-dihydroisoquinolin-2(1H)-yl)-2-hydroxypropyl)-6-((1-acetylpiperidin-4-yl)amino)pyrimidine-4-carboxamide], the IC50 was 500 to 5000 nM on PRMT5 [1]; not below 5000 nM on PRMT5 [2] (read-out: No Co-factor IC50); 50 to 500 nM at PRMT5 [3]; not below 10000 nM in the test with HAP1 MTAP-intact; 1000 to 10000 nM with HAP1 MTAP-deleted. At PRMT5 [3] (setting [4]), the “SAM/MTA Ratio” value was “A (a Ki ratio greater than or equal to 10 fold between the Ki in the presence of SAM and the Ki in the presence of MTA)”. In addition, the “MTAP Intact/Deleted Ratio” value in the test with HAP1 MTAP-deleted is “C* (an IC50 ratio of less than 3 fold between the IC50 in the HAP1 MTAP-intact cell line and the HAP1 MTAP-deleted cell line)”.
Take `CC(=O)N1CCC(Nc2cc(C(=O)NC[C@H](O)CN3CCc4c(ccc(OCc5cnco5)c4C)C3)ncn2)CC1` [Compound 198, 6-[(1-acetyl-4-piperidyl)amino]-N-[(2S)-2-hydroxy-3-[5-methyl-6-(oxazol-5-ylmethoxy)-3,4-dihydro-1H-isoquinolin-2-yl]propyl]pyrimidine-4-carboxamide]: the IC50 on PRMT5 [1] is 50 to 500 nM; at PRMT5 [2] (read-out: No Co-factor IC50), not below 5000 nM; on PRMT5 [3], 50 to 500 nM; with HAP1 MTAP-intact, not below 10000 nM; in the test on HAP1 MTAP-deleted, 1000 to 10000 nM. Also, the “SAM/MTA Ratio” value at PRMT5 [3] (setting [4]) was “A (a Ki ratio greater than or equal to 10 fold between the Ki in the presence of SAM and the Ki in the presence of MTA)”. Moreover, the “MTAP Intact/Deleted Ratio” value in the test with HAP1 MTAP-deleted was “C* (an IC50 ratio of less than 3 fold between the IC50 in the HAP1 MTAP-intact cell line and the HAP1 MTAP-deleted cell line)”.
Regarding `Cc1c(OCc2cnco2)ccc2c1CCN(C[C@@H](O)CNC(=O)c1ccnc(NC3CCC3)c1)C2` [Compound 179, 2-(cyclobutylamino)-N-[(2S)-2-hydroxy-3-[5-methyl-6-(oxazol-5-ylmethoxy)-3,4-dihydro-1H-isoquinolin-2-yl]propyl]pyridine-4-carboxamide], the IC50 at PRMT5 [1] is 50 to 500 nM; at PRMT5 [2] (read-out: No Co-factor IC50) it was not below 5000 nM; at PRMT5 [3], 50 to 500 nM; in the test on HAP1 MTAP-intact, not below 10000 nM; with HAP1 MTAP-deleted, 1000 to 10000 nM. For the same compound, the “SAM/MTA Ratio” value on PRMT5 [3] (setting [4]) is “A (a Ki ratio greater than or equal to 10 fold between the Ki in the presence of SAM and the Ki in the presence of MTA)”. The “MTAP Intact/Deleted Ratio” value in the test on HAP1 MTAP-deleted is “C* (an IC50 ratio of less than 3 fold between the IC50 in the HAP1 MTAP-intact cell line and the HAP1 MTAP-deleted cell line)”.
For `Cc1ncoc1COc1ccc2c(c1)CCN(C[C@@H](O)CNC(=O)c1cc(NC3CCC3)nc(N3C4CCC3COC4)c1)C2` [Compound 598], the IC50 at PRMT5 [1] is 50 to 500 nM; against PRMT5 [2] it was 500 to 5000 nM; on PRMT5 [3], 50 to 500 nM; in the test with HAP1 MTAP-intact, less than 1000 nM; in the test with HAP1 MTAP-deleted, less than 1000 nM. At PRMT5 [3] (setting [5]), the “SAM/MTA Ratio” value was “A (a Ki ratio greater than or equal to 10 fold between the Ki in the presence of SAM and the Ki in the presence of MTA)”. In the test on HAP1 MTAP-deleted, the “MTAP Intact/Deleted Ratio” value is “C* (an IC50 ratio of less than 3 fold between the IC50 in the HAP1 MTAP-intact cell line and the HAP1 MTAP-deleted cell line)”.
On to `Cc1ncoc1COc1ccc2c(c1C)CCN(C[C@@H](O)CNC(=O)c1cc(NC3CCC3)ncn1)C2` [Compound 371, 6-(cyclobutylamino)-N-[(2S)-2-hydroxy-3-{5-methyl-6-[(4-methyl-1,3-oxazol-5-yl)methoxy]-1,2,3,4-tetrahydroisoquinolin-2-yl}propyl]pyrimidine-4-carboxamide], for which the concentration for half-maximal inhibition (IC50) at PRMT5 [1] was 500 to 5000 nM; on PRMT5 [2] (read-out: No Co-factor IC50), not below 5000 nM; on PRMT5 [3], 50 to 500 nM; in the test on HAP1 MTAP-intact it was not below 10000 nM; in the test on HAP1 MTAP-deleted, less than 1000 nM. The “SAM/MTA Ratio” value on PRMT5 [3] (setting [4]) was “A (a Ki ratio greater than or equal to 10 fold between the Ki in the presence of SAM and the Ki in the presence of MTA)”. Moreover, the “MTAP Intact/Deleted Ratio” value with HAP1 MTAP-deleted is “A* (an IC50 ratio greater than or equal to 10 fold between the IC50 in the HAP1 MTAP-intact cell line and the HAP1 MTAP-deleted cell line)”.
Consider `O=C(NC[C@H](O)CN1CCc2c(ccc(OCc3cnco3)c2Cl)C1)c1cc(NC2CCC2)nc(N2CCOCC2)c1` [Compound 288, (S)—N-(3-(5-chloro-6-(oxazol-5-ylmethoxy)-3N-dihydroisoquinolin-2(1H)-yl)-2-hydroxypropyl)-2-(cyclobutylamino)-6-morpholinoisonicotinamide], for which the IC50 was 500 to 5000 nM at PRMT5 [1]; not below 5000 nM on PRMT5 [2] (read-out: No Co-factor IC50); 50 to 500 nM at PRMT5 [3]; not below 10000 nM in the test on HAP1 MTAP-intact; 1000 to 10000 nM with HAP1 MTAP-deleted. In addition, at PRMT5 [3] (setting [4]), the “SAM/MTA Ratio” value is “A (a Ki ratio greater than or equal to 10 fold between the Ki in the presence of SAM and the Ki in the presence of MTA)”. In the test on HAP1 MTAP-deleted, the “MTAP Intact/Deleted Ratio” value is “C* (an IC50 ratio of less than 3 fold between the IC50 in the HAP1 MTAP-intact cell line and the HAP1 MTAP-deleted cell line)”.
As for `CC(=O)N1CC(Nc2cc(C(=O)NC[C@H](O)CN3CCc4cc(OCc5cnco5)ccc4C3)nc(C(C)(C)C)n2)C1` [Compound 379, (S)-6-((1-acetylazetidin-3-yl)amino)-2-(tert-butyl)-N-(2-hydroxy-3-(6-(oxazol-5-ylmethoxy)-3,4-dihydroisoquinolin-2(1H)-yl)propyl)pyrimidine-4-carboxamide], the half-maximal inhibitory concentration (IC50) at PRMT5 [1] is 50 to 500 nM; at PRMT5 [2] (read-out: No Co-factor IC50), 500 to 5000 nM; on PRMT5 [3], 50 to 500 nM; with HAP1 MTAP-intact it was less than 1000 nM; in the test with HAP1 MTAP-deleted it was less than 1000 nM. Besides, the “SAM/MTA Ratio” value at PRMT5 [3] (setting [4]) is “A (a Ki ratio greater than or equal to 10 fold between the Ki in the presence of SAM and the Ki in the presence of MTA)”. Besides, the “MTAP Intact/Deleted Ratio” value in the test with HAP1 MTAP-deleted is “C* (an IC50 ratio of less than 3 fold between the IC50 in the HAP1 MTAP-intact cell line and the HAP1 MTAP-deleted cell line)”.
Consider `CC(=O)N1CCC(Nc2cc(C(=O)NC[C@H](O)CN3CCc4cc(OCc5ocnc5C)ccc4C3)cc(N(C)C)n2)CC1` [Compound 629, (S)-2-((1-acetylpiperidin-4-yl)amino)-6-(dimethylamino)-N-(2-hydroxy-3-(6-((4-methyloxazol-5-yl)methoxy)-3,4-dihydroisoquinolin-2(1H)-yl)propyl)isonicotinamide], for which the IC50 at PRMT5 [1] was 50 to 500 nM; at PRMT5 [2] (read-out: No Co-factor IC50) it was 500 to 5000 nM; on PRMT5 [3], 50 to 500 nM; in the test with HAP1 MTAP-intact it was 1000 to 10000 nM; in the test with HAP1 MTAP-deleted, less than 1000 nM. At PRMT5 [3] (setting [4]), the “SAM/MTA Ratio” value was “A (a Ki ratio greater than or equal to 10 fold between the Ki in the presence of SAM and the Ki in the presence of MTA)”. Besides, the “MTAP Intact/Deleted Ratio” value in the test with HAP1 MTAP-deleted was “A* (an IC50 ratio greater than or equal to 10 fold between the IC50 in the HAP1 MTAP-intact cell line and the HAP1 MTAP-deleted cell line)”.
As for `CCCC(=O)N1CCC(Nc2cc(C(=O)NC[C@H](O)CN3CCc4c(ccc(OCc5cnco5)c4C)C3)ncn2)CC1` [Compound 560, 6-[(1-butanoylpiperidin-4-yl)amino]-N-[(2S)-2-hydroxy-3-{5-methyl-6-[(1,3-oxazol-5-yl)methoxy]-1,2,3,4-tetrahydroisoquinolin-2-yl}propyl]pyrimidine-4-carboxamide], the IC50 at PRMT5 [1] was 50 to 500 nM; against PRMT5 [2] it was 500 to 5000 nM; at PRMT5 [3] it was 50 to 500 nM; with HAP1 MTAP-intact, not below 10000 nM; in the test with HAP1 MTAP-deleted, 1000 to 10000 nM. For the same compound, the “SAM/MTA Ratio” value on PRMT5 [3] (setting [5]) was “A (a Ki ratio greater than or equal to 10 fold between the Ki in the presence of SAM and the Ki in the presence of MTA)”. Besides, in the test on HAP1 MTAP-deleted, the “MTAP Intact/Deleted Ratio” value is “B* (an IC50 ratio greater than or equal to 3 fold but lower than 10 fold between the IC50 in the HAP1 MTAP-intact cell line and the HAP1 MTAP-deleted cell line)”.

A word on the IC50: it is the midpoint of a concentration-inhibition curve.

Values taken from patent publication US11986471B2, “Compounds and methods of use” (Tango Therapeutics, Inc., priority 2018, dated 2024).
